The values below are quoted from earlier work in US20230349886A1, “SYSTEMS AND METHODS FOR PREDICTING CARDIOTOXICITY OF MOLECULAR PARAMETERS OF A COMPOUND BASED ON MACHINE LEARNING ALGORITHMS” (UTI Limited Partnership, priority 2015, published 2023).

The structures appear in SMILES notation. Read-outs that look alike come from different tables or passages of the source.

Data set [1] concerns the target Cav1.2 (Homo sapiens, UniProt Q13936).
Data set [2] deals with Nav1.5 (Homo sapiens, UniProt Q14524). To be noted: Brown dataset; for IC50: read-out: NAV1.5 IC50.
The conditions of data set [3]: Brown dataset; flag given as 1 or 0.
Data set [4] deals with hERG (Homo sapiens, UniProt Q12809).
[5] abbreviates: read-out: CAV1.2 IC50, Brown dataset.
Setting [6] is: read-out: HERG IC50, Brown dataset.
Setting [7] is: Table 11, calculated from HERG-IC50 of the Kramer et al. 2013 data.

Sequence of hERG (Q12809 whole entry): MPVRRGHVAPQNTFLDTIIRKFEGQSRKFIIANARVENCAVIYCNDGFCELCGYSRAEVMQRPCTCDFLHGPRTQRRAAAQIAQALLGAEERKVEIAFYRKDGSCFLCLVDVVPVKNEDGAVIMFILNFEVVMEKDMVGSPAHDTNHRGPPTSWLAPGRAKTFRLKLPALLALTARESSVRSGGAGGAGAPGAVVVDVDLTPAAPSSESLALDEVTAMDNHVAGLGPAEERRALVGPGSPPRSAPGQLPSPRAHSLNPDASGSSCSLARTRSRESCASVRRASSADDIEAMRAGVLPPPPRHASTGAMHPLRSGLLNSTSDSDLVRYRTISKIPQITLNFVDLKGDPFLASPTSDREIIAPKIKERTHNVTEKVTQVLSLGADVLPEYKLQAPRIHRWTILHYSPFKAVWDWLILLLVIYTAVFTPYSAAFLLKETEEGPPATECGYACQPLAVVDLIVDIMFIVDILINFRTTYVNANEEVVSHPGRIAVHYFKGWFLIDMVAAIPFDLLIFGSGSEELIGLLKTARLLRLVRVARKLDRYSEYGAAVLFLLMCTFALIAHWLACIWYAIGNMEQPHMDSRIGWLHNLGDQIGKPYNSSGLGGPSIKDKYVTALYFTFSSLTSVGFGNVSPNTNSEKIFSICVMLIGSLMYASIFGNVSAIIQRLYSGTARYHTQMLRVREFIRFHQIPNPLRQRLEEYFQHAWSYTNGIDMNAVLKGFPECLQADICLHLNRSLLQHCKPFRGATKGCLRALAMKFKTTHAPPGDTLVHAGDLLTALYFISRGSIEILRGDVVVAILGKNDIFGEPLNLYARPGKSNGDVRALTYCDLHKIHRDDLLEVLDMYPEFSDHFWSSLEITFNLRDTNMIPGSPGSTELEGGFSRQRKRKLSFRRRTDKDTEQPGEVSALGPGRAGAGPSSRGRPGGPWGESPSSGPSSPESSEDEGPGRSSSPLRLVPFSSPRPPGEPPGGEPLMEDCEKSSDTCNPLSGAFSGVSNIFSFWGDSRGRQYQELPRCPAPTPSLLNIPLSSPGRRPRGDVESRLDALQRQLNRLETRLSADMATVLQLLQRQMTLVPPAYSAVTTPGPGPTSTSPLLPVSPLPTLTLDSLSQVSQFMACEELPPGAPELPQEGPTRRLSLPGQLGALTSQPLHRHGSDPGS
Sequence of Nav1.5 (Q14524 1-2016 isoform Q14524-4 V215L/S234P): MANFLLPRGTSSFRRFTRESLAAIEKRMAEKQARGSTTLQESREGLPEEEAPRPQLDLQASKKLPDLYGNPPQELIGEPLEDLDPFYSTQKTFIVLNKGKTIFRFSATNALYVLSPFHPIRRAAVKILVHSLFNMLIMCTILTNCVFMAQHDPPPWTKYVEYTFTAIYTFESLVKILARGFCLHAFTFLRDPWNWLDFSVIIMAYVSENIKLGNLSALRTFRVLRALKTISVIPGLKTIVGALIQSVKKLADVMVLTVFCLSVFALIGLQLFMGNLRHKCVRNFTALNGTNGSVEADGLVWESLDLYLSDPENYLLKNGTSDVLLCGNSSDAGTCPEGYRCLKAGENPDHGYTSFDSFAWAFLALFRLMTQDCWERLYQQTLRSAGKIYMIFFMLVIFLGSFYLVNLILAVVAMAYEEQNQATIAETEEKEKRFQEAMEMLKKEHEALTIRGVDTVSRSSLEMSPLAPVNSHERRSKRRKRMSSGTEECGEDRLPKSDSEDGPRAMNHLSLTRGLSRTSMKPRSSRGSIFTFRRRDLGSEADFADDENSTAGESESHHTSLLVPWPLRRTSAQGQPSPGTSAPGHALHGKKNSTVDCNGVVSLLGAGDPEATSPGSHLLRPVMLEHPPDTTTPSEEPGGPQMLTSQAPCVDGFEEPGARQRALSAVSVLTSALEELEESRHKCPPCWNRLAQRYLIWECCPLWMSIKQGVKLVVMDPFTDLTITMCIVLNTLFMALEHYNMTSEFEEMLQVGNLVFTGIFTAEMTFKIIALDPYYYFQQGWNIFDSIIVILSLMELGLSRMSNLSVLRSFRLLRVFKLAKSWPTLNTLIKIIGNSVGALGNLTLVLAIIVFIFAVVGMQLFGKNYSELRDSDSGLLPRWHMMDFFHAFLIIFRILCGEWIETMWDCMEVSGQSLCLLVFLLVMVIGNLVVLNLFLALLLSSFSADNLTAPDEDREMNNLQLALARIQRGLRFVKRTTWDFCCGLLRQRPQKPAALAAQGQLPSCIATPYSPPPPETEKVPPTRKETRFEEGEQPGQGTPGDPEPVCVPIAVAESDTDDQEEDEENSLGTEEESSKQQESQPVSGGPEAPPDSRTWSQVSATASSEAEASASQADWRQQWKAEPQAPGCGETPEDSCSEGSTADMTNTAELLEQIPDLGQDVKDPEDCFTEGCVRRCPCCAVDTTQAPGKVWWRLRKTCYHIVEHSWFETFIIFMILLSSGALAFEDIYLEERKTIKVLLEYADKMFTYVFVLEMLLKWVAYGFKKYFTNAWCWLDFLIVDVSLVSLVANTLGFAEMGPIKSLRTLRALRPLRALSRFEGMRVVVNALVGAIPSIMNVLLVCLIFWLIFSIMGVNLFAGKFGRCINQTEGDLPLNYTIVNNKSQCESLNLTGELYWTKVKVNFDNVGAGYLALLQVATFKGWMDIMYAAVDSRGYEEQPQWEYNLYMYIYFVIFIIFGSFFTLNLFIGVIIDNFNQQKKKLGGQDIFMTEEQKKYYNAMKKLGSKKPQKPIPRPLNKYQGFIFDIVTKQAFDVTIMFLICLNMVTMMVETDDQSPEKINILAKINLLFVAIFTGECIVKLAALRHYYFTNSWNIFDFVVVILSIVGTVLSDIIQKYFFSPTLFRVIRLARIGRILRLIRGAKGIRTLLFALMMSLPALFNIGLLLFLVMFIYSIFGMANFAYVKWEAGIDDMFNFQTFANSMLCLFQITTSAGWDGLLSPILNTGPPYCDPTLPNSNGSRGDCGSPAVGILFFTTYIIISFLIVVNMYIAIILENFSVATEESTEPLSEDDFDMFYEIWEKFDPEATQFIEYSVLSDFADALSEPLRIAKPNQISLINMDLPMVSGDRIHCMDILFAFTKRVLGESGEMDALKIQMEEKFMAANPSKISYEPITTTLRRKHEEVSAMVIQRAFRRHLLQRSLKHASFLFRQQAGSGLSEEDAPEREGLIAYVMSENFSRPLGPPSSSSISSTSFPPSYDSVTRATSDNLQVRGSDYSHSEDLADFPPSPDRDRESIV

As for `O=C(O[C@H]1CN2CCC1CC2)N1CCc2ccccc2[C@@H]1c1ccccc1` [solifenacin], in data set [1] (Brown dataset), the CAV1.2 max inhib was 96.4. Besides, the NAV1.5 max inhib in data set [2] was 100.
In the case of `CSc1ccc2c(c1)N(CCC1CCCCN1C)c1ccccc1S2` (stereo not drawn) [thioridazine], the CAV1.2 max inhib in data set [1] (Brown dataset) is on record as 82.9. The NAV1.5 max inhib in data set [2] is given as 99.3.
Turning to `CCN(CC)CCNC(=O)c1c(C)[nH]c(/C=C2\C(=O)Nc3ccc(F)cc32)c1C` [sunitinib], in data set [1] (Brown dataset), the CAV1.2 max inhib was 61.5. In data set [1] (setting [5]), the IC50 (as a rule, the concentration that gives 50% inhibition) is 33.4 µM. For the same molecule, in data set [2], the NAV1.5 max inhib is recorded as 66.4. Besides, in data set [3], the “Ris (TdP risk flag)” value is on record as 1.
With `CN(C)CCCN1c2ccccc2Sc2ccc(Cl)cc21` [chlorprom ne], the “Ris (TdP risk flag)” value in data set [3] is recorded as 1. The “HERG maxInhib” value in data set [4] (Brown dataset) is listed as 96.7. In data set [4] (setting [6]), the IC50 was 1.5 µM.
Take `CCN1CCN(C(=O)N[C@@H](C(=O)N[C@@H]2C(=O)N3[C@@H]2SC(C)(C)[C@@H]3C(=O)O)c2ccccc2)C(=O)C1=O` [piperacillin]: the CAV1.2 max inhib in data set [1] (Brown dataset) is listed as 15.9. For the same molecule, the IC50 in data set [1] (setting [5]) is 1230 µM. In data set [2], the NAV1.5 max inhib was 9.7 and the IC50 was 2430 µM.
With `O=c1[nH]c2ccccc2n1C1CCN(CCCC(c2ccc(F)cc2)c2ccc(F)cc2)CC1` [pimozide], the CAV1.2 max inhib in data set [1] (Brown dataset) is on record as 88.1. The “Ris (TdP risk flag)” value in data set [3] is given as 1. Also, in data set [4], the “HERG maxInhib” value is reported as 91.3.
On to `CC(C)(C)c1ccc(C(O)CCCN2CCC(C(O)(c3ccccc3)c3ccccc3)CC2)cc1` (stereo not drawn) [terfenadine], for which the CAV1.2 max inhib in data set [1] (Brown dataset) is 98. For the same molecule, the NAV1.5 max inhib in data set [2] is 99.
With `CCCCc1oc2ccccc2c1C(=O)c1cc(I)c(OCCN(CC)CC)c(I)c1` [amiodaron], in data set [3], the “Ris (TdP risk flag)” value is given as 1.
`O=C(CCCN1CCC(O)(c2ccc(Cl)cc2)CC1)c1ccc(F)cc1` [haloperidol]: the CAV1.2 max inhib in data set [1] (Brown dataset) is 94. Further, the NAV1.5 max inhib in data set [2] is on record as 96.6. The “HERG maxInhib” value in data set [4] is reported as 89.2.
Regarding `Cc1cn([C@@H]2C[C@@H](O)[C@H](CO)O2)c(=O)[nH]c1=O` [telbivudine], the CAV1.2 max inhib in data set [1] (Brown dataset) is 22.1. The 50% inhibitory concentration (IC50) in data set [1] (setting [5]) was 714 µM; in data set [2], 1100 µM; in data set [4] (setting [6]), 423 µM. In addition, the NAV1.5 max inhib in data set [2] was 15.1. Also, the “HERG maxInhib” value in data set [4] (Brown dataset) is 17.4. In data set [4] (setting [7]), the pIC50 (as a rule, −log10 of the IC50, conventionally taken in molar units) was 3.374.
Take `CC(C)N(CCC(C(N)=O)(c1ccccc1)c1ccccn1)C(C)C` (stereo not drawn) [disopyrami]: in data set [1], the CAV1.2 max inhib is on record as 22.1, the “CAV1.2 pIC50” value was 2.9843 902 and the half-maximal inhibitory concentration (IC50) is 1040 µM. Moreover, in data set [2], the NAV1.5 max inhib was 68.9 and the IC50 was 168 µM.
As for `CN1CCN(C2=Nc3cc(Cl)ccc3Nc3ccccc32)CC1` [clozapine], the CAV1.2 max inhib in data set [1] (Brown dataset) is given as 73.5. In addition, in data set [2], the NAV1.5 max inhib was 91.8 and the IC50 was 15.1 µM. Further, the “HERG maxInhib” value in data set [4] (Brown dataset) is 97.7.
For `CC(C)(C)NC(=O)[C@@H]1C[C@@H]2CCCC[C@@H]2CN1C[C@@H](O)[C@H](Cc1ccccc1)NC(=O)[C@H](CC(N)=O)NC(=O)c1ccc2ccccc2n1` [saquinavir], the “HERG maxInhib” value in data set [4] (Brown dataset) is given as 73.1. Moreover, in data set [4] (setting [7]), the pIC50 is 4.772. For the same molecule, in data set [4] (setting [6]), the 50% inhibitory concentration (IC50) is 16.9 µM.
As for `Cc1cn(-c2cc(NC(=O)c3ccc(C)c(Nc4nccc(-c5cccnc5)n4)c3)cc(C(F)(F)F)c2)cn1` [nilotinib], the CAV1.2 max inhib in data set [1] (Brown dataset) was 32.4.
`COc1c(N2C[C@@H]3CCCN[C@@H]3C2)c(F)cc2c(=O)c(C(=O)O)cn(C3CC3)c12` [moxifloxacin]: in data set [1] (Brown dataset), the CAV1.2 max inhib is listed as 53.7. Moreover, the NAV1.5 max inhib in data set [2] is recorded as 17.4. The “HERG maxInhib” value in data set [4] (Brown dataset) was 75.9.
As for `CN1C(=O)CN=C(c2ccccc2)c2cc(Cl)ccc21` [diazepam], the “Ris (TdP risk flag)” value in data set [3] was 0.
Consider `COc1cc(N)c(Cl)cc1C(=O)NC1CCN(CCCOc2ccc(F)cc2)CC1OC` (stereo not drawn) [cisapride], for which, in data set [1] (Brown dataset), the CAV1.2 max inhib is listed as 42.8. The half-inhibitory concentration (IC50) in data set [1] (setting [5]) was 11.8 µM. Further, in data set [2], the NAV1.5 max inhib was 22.9 and the half-maximal inhibitory concentration (IC50) was 337 µM. The “Ris (TdP risk flag)” value in data set [3] is on record as 1.
For the molecule `CC(CC(c1ccccc1)c1ccccc1)NC(C)(C)C` (stereo not drawn) [terodiline], the CAV1.2 max inhib in data set [1] (Brown dataset) is listed as 95.4. For the same molecule, the 50% inhibitory concentration (IC50) in data set [1] (setting [5]) was 4.8 µM; in data set [2], 7.4 µM. Besides, the NAV1.5 max inhib in data set [2] is given as 100. In data set [3], the “Ris (TdP risk flag)” value is 1.
For the molecule `Cc1nc2n(c(=O)c1CCN1CCC(c3noc4cc(F)ccc34)CC1)CCCC2O` (stereo not drawn) [paliperidone], the CAV1.2 max inhib in data set [1] (Brown dataset) is listed as 33.1. The IC50 in data set [1] (setting [5]) is 194 µM. Further, in data set [2], the NAV1.5 max inhib was 51.2 and the half-inhibitory concentration (IC50) is 109 µM. The “Ris (TdP risk flag)” value in data set [3] is given as 1.
Turning to `O=C(CCCN1CC=C(n2c(=O)[nH]c3ccccc32)CC1)c1ccc(F)cc1` [droperidol], the CAV1.2 max inhib in data set [1] (Brown dataset) is given as 83.4. Besides, the results for the half-inhibitory concentration (IC50) in data set [1] (setting [5]) and in data set [2] were 7.6 µM and 22.7 µM, respectively. For the same molecule, the NAV1.5 max inhib in data set [2] is given as 59. Moreover, the “Ris (TdP risk flag)” value in data set [3] was 1.
For `CN(CCOc1ccc(NS(C)(=O)=O)cc1)CCc1ccc(NS(C)(=O)=O)cc1` [dofetilide], in data set [1] (Brown dataset), the CAV1.2 max inhib is 54.2. The “Ris (TdP risk flag)” value in data set [3] was 1.
Consider `O=C1NCCN1CCN1CCC(c2cn(-c3ccc(F)cc3)c3ccc(Cl)cc23)CC1` [sertindole], for which the CAV1.2 max inhib in data set [1] (Brown dataset) was 91.5. For the same molecule, the results for the half-maximal inhibitory concentration (IC50) in data set [1] (setting [5]) and in data set [2] were 6.3 µM and 6.9 µM, respectively. For the same molecule, the NAV1.5 max inhib in data set [2] was 95.5. In data set [3], the “Ris (TdP risk flag)” value is recorded as 1.
With `CCCCN(CCCC)CCC(O)c1cc2c(Cl)cc(Cl)cc2c2cc(C(F)(F)F)ccc12` (stereo not drawn) [halofantrine], the negative-log IC50 (pIC50) in data set [4] was 6.42.
Turning to `C=C[C@H]1C[N@@]2CC[C@H]1C[C@@H]2[C@@H](O)c1ccnc2ccc(OC)cc12` [quinidine], the CAV1.2 max inhib in data set [1] (Brown dataset) is on record as 58. In addition, the NAV1.5 max inhib in data set [2] is given as 97.5. For the same molecule, the “Ris (TdP risk flag)” value in data set [3] is recorded as 1.
On to `CCN(CC)CCNC(=O)c1ccc(N)cc1` [procainamide], for which, in data set [4] (Brown dataset), the “HERG maxInhib” value is given as 50.7.
For `C[C@@H](c1ncncc1F)[C@](O)(Cn1cncn1)c1ccc(F)cc1F` [voriconazole], the CAV1.2 max inhib in data set [1] (Brown dataset) was 40.9. Besides, the IC50 in data set [1] (setting [5]) is 414 µM. In addition, in data set [2], the NAV1.5 max inhib is recorded as 15.8 and the IC50 was 1550 µM.
With `COCC(=O)O[C@]1(CCN(C)CCCc2nc3ccccc3[nH]2)CCc2cc(F)ccc2[C@@H]1C(C)C` [mibefradil], in data set [1] (Brown dataset), the CAV1.2 max inhib is 92.1. In addition, in data set [2], the NAV1.5 max inhib was 100. Besides, the “Ris (TdP risk flag)” value in data set [3] is 0.
As to `CCOC(=O)N1CCC(=C2c3ccc(Cl)cc3CCc3cccnc32)CC1` [loratadine], the “Ris (TdP risk flag)” value in data set [3] is 0.
On to `CCCCN(CCCC)CCC(O)c1cc2c(Cl)cc(Cl)cc2c2cc(C(F)(F)F)ccc12` (stereo not drawn) [halofantrin], for which, in data set [2], the NAV1.5 max inhib is listed as 8.3 and the half-maximal inhibitory concentration (IC50) is 331 µM. Further, in data set [4], the “HERG maxInhib” value is 77.9, the “HERG pIC50” value was 6.4202 403 and the IC50 was 0.38 µM.
As for `Cc1ncc([N+](=O)[O-])n1CCO` [metronidazol e], the “HERG maxInhib” value in data set [4] (Brown dataset) is on record as […]. For the same molecule, in data set [4] (setting [6]), the half-inhibitory concentration (IC50) was […].
On to `Cc1ncc([N+](=O)[O-])n1CCO` [metronidazole], for which, in data set [4] (setting [7]), the pIC50 is given as […].
